Laboratory results as given in US20050209157A1, “Short bioactive peptides and methods for their use” (priority 2001, published 2005).
Values joined by “and” are separate entries in the source; they are usually repeats but may differ in a detail not shown here. Identical values can stand only once. Like-named read-outs stand apart in the source and are kept apart here. No end group written: not given here.

Columns and labels:
[1] = test system: P. aeruginosa H774; type: cell-based, Pseudomonas aeruginosa; set-up: key to FIC Index: FIC = 0.25 + MIC antibiotic in combination / MIC alone; ≤0.5 = synergy; conditions: P. aeruginosa H744; nalidixic acid + peptide at ¼ MIC; 0.5 or less = synergy
Outline: (§1)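 Efflux-mutant strains were tested with two-fold serial dilutions of chloramphenicol or nalidixic acid, alone and with peptide held at ¼ of its own MIC.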

[2] = test system: P. aeruginosa; type: cell-based, Pseudomonas aeruginosa; set-up: key to FIC Index: FIC = 0.25 + MIC antibiotic in combination / MIC alone; ≤0.5 = synergy; conditions: P. aeruginosa H744; MIC of nalidixic acid with peptide at ¼ MIC
Outline: as §1

[3] = test system: P. aeruginosa H374; type: cell-based, Pseudomonas aeruginosa; set-up: key to FIC Index: FIC = 0.25 + MIC antibiotic in combination / MIC alone; ≤0.5 = synergy; conditions: for MIC Cm-comb.: MIC of chloramphenicol with peptide at ¼ MIC; for MIC Nal-comb.: MIC of nalidixic acid with peptide at ¼ MIC; for FIC Index: 0.5 or less = synergy
Outline: as §1

[4] = test system: yeast (Saccharomyces cerevisiae); test: Antimicrobial assay I, yeast assay in RPMI 1640; type: cell-based; conditions: RPMI 1640 media
[5] = test system: S. pyogenes ATCC19615; test: Antimicrobial assays II, NCCLS broth microdilution MIC; type: cell-based, Streptococcus pyogenes; conditions: mean of three, in µg/mL
[6] = test system: Staphylococcus aureus ATCC 6538; test: Antimicrobial assay I, MIC by OD measurement; type: cell-based; conditions: 37° C. for 24 hours, absorbance 620 nm
[7] = test system: Pseudomonas aeruginosa ATCC 9027; test: Antimicrobial assay I, MIC by OD measurement; type: cell-based; conditions: 37° C. for 24 hours, absorbance 620 nm
[8] = test system: S. epidermidis C621; type: cell-based, Staphylococcus epidermidis; conditions: mean of three; 16 to 20 hours at 35° C.
[9] = test system: P. acne ATCC 6919; test: Antimicrobial assays II, NCCLS broth microdilution MIC; type: cell-based, Propionibacterium acnes; conditions: mean of three, in µg/mL
[10] = test system: S. aureus (MRSA); type: cell-based, Staphylococcus aureus; conditions: mean of three; 16 to 20 hours at 35° C.
[11] = test system: S. pneumoniae C719; test: Antimicrobial assays II, NCCLS broth microdilution MIC; type: cell-based, Streptococcus pneumoniae; conditions: mean of three, in µg/mL
[12] = test system: S. pyogenes M76; test: as above; type: cell-based, Streptococcus pyogenes; conditions: mean of three; 16 to 20 hours at 35° C.
[13] = test system: S. pneumoniae C718; test: as above; type: cell-based, Streptococcus pneumoniae; conditions: mean of three
[14] = test system: MCF7; test: Anti-cancer assay, MTT, LD50; type: cell-based; conditions: MCF7 breast adenocarcinoma line, MTT, 24 hours with peptide
Text: (§2) Numbers are LD50 values (μg/mL).

[15] = test system: HeLaS3; test: Anti-cancer assay, MTT, LD50; type: cell-based; conditions: 24 hours with peptide, cervical carcinoma
Text: as §2

[16] = test system: BMKC; test: Anti-cancer assay, MTT, LD50; type: cell-based; conditions: BMKC cloned melanoma line, 24 hours with peptide
Text: as §2

[17] = test system: PC3; test: Anti-cancer assay, MTT, LD50; type: cell-based; conditions: 24 hours with peptide, prostate adenocarcinoma
Text: as §2

[18] = test system: SW480; test: Anti-cancer assay, MTT, LD50; type: cell-based; conditions: SW480 colon adenocarcinoma line, 24 hours with peptide
Text: as §2

[19] = test system: H1299; test: Anti-cancer assay, MTT, LD50; type: cell-based; conditions: 24 hours with peptide, lung large cell carcinoma
Text: as §2

[20] = in vitro; conditions: human, WI38 normal lung fibroblast cells, LD50 WI38, WI38 normal lung fibroblast line, MTT, 24 hours with peptide
[21] = in vitro; type: cell-based, human; conditions: human, human red blood cells, pH 7, hemolytic assay, concentration at 50% hemolysis, 1 hour at 37° C.; read-out: LD50
[22] = test system: WI38; conditions: MTT, 24 hours with peptide; normal fibroblast line
[23] = chloramphenicol + peptide at ¼ MIC
[24] = nalidixic acid + peptide at ¼ MIC, FIC=0.25+MIC comb/MIC alone

Row | Substance | FIC Index [1] | MIC Nal-comb. [2] [µg/mL] | MIC Cm-comb. [3] [µg/mL] | MIC Nal-comb. [3] [µg/mL] | FIC Index [3, 23] | FIC Index [3, 24] | yeast (MIC or MFC) [4] [µg/mL] | S. pyogenes MIC [5] | staph6538 (MIC) [6] [µg/mL] | paerug9027 (MIC) [7] | S. epidermidis C621 MIC [8] [µg/mL] | P. acne MIC [9] | S. aureus (MRSA) MIC [10] [µg/mL] | S. pneumoniae MIC [11] | S. pyogenes M76 MIC [12] [µg/mL] | S. pneumoniae MIC [13] [µg/mL] | LD50 MCF7 [14] [µg/mL] | LD50 BMKC [16] [µg/mL] | PC3 LD50 [17] [µg/mL] | LD50 SW480 [18] [µg/mL] | further results
1 | FAKLLALALKKAL-NH2 [P97, FAKLLALALKKAL-NH2] | 0.375 | 78 | 16 | 5000 | 1.25 | 1.25 | 50 | 4 and 8 | 5 | 50 µg/mL | 4 | 8 and 16 | 8 | 16 and 32 | 4 | 32 | – | – | – | – | –
2 | FAKKLAKKLKKLAKKLAKKWKL-OH [P72] | 0.75 | 312 | 8 | 2500 | 0.75 | 0.75 | – | 16 | – | – | 4 | 2 | 16 | 16 | 16 | > 128 | 93 | 290 | 63 | 82 | HeLaS3 LD50 [15]: 240 µg/mL; H1299 LD50 [19]: 160 µg/mL; CC50 at 24 h [20]: 125 µg/mL; HC50 at 1 h [21]: 110 µg/mL; WI38 LD50 [22]: 125 µg/mL
3 | FAKALKALLKALKAL-NH2 [P64] | 1.25 | 624 | 16 | 5000 | 1.25 | 1.25 | 200 | 4 | 5 | > (> indicates greater than 200 μg/mL) | 4 | 2 | 8 | 2 | 4 | 8 | 80 | 35 | 46 | – | HeLaS3 LD50 [15]: 30 µg/mL; H1299 LD50 [19]: 30 µg/mL
4 | VAKKLAKLAKKLAKLAL-NH2 [P50] | 1.25 | 624 | 16 | 5000 | 1.25 | 1.25 | 50 | 4 | 5 | 15 µg/mL | 4 | 4 | 4 | 16 | 8 | 32 | 32 | 40 | 54 | 46 | HeLaS3 LD50 [15]: 33 µg/mL; H1299 LD50 [19]: 7 µg/mL
5 | GIGKFLKKAKKFGKAFVKILKK-NH2 [P42, reference compound] | 1.25 | 624 | 16 | 5000 | 1.25 | 1.25 | 200 | 4 | 10 | > (> indicates greater than 200 μg/mL) | 2 | 2 | 16 | 8 | 4 | 32 | 31 | 140 | 66 | 34 | H1299 LD50 [19]: 150 µg/mL
6 | FALLKALLKKAL-NH2 [P177, FALLKALLKKAL-NH2] | 0.75 | 312 | 8 | 5000 | 0.75 | 1.25 | – | 4 | – | – | 4 | 8 | 8 | 16 | 8 | 32 | 190 | 310 | – | 310 | CC50 at 24 h [20]: 270 µg/mL; HC50 at 1 h [21]: 400 µg/mL
7 | VALALKALKKLLKKLKKLAKKAL-NH2 [P510] | 1.25 | 624 | 4 | 625 | 0.5 | 0.375 | – | 8 | – | – | 4 | 2 | 8 | 16 | 8 | 64 | – | – | – | – | HC50 at 1 h [21]: 10 µg/mL
